From patent US20170233628A1, “ENZYME DES[…] DES[…] PRODUCING SULFUR CONTAINING COMPOUNDS IN DOWNHOLE FLUIDS” (BAKER HUGHES INCORPORATED, priority 2016, published 2017)

Tested on: sulfur producing enzymes
Assay: H2S production (colour of sample) by sterile, enzyme-containing SRB supernatant after treatment with inhibitors
Assay type: biochemical, sulfate-reducing bacteria (SRBs) from produced water sources
Conditions: sterile enzyme-containing supernatant in LB, 3 months at 37° C.
Procedure: Now turning to the Figures, FIG. 1 illustrates the ability of sterile solutions to produce hydrogen sulfide (H2S). Six samples were formed with the following procedure. Each sample includes 100 mL of lysogeny broth (LB) ([…] Tryptone, 5 mg/ml yeast extract, 5 mg/mL NaCl, pH 7.5). Sample A is the blank sample, i.e. no sulfur metabolizing enzymes were added. Samples B-D include 0.5 mL of cultured sulfate-reducing bacteria (SRBs) from produced water sources. […]
Sample E includes 0.5 mL of supernatant after the same cultured SRBs were additionally sonicated. A QSonic sonicator sonicated the cultured SRBs for one minute cycles at 70% amplitude. The cell debris was removed via centrifugation at 3000 RPM for 25 minutes. 0.5 mL of the remaining supernatant was added to Sample E.
The remaining supernatant was filtered through a […] pore size PVDF membrane. […]
Samples 1-9 included the same components as that of Sample F from Example 1, i.e. 0.5 mL of the sterile, enzyme-containing, supernatant. […] Samples 1-9 were incubated at 37° C. and monitored periodically. […]

NC(=O)CI [Iodoacetamide, iodoacetamide] was tested, and the “inactivation of sulfur producing enzymes” value was “effective in permanently inactivating enzymes”.
In the case of CCCCCCCCCCCCOS(=O)(=O)[O-].[Na+] [SDS, sodium dodecyl sulfate], the “inactivation of sulfur producing enzymes” value was “effective in permanently inactivating enzymes”.
